Laboratory results: patent publication US10786690B2, “Amide derivatives of polycaffeoylquinic acids, process for producing same and uses thereof” (TEMISIS, priority 2016, dated 2020)

Experiments:
[1] = system: female SKH-1 hairless mice; assay: TPA-induced skin inflammation in female SKH-1 hairless mice, macroscopic visual scoring; assay type: in vivo
Procedure: The study is performed on 18 female SKH-1 hairless mice, weighing roughly 20-25 g and divided into 3 groups (n=6/housed in pairs) under controlled temperature (24±2° C.) and humidity (50±20%) conditions and with a 12-hour reversed light cycle (light from 21:00 to 09:00) (food and water ad libitum).
The compounds to be tested are as follows: • Excipial® ointment (control) • PAT1657 (octyl-isochlorogenamide A) incorporated at 1.33% or 2.67% by mass in Excipial® ointment
The treatment groups are distributed as follows: • G1: induced skin inflammation+daily treatment with vehicle (Excipial® ointment) (Control), • G2: induced skin inflammation+treatment with PAT1657 incorporated at 1.33% by mass in Excipial® ointment (PAT1657/1.33%), • G3: induced skin inflammation+treatment with PAT1657 incorporated at 2.67% by mass in Excipial® ointment (PAT1657/2.67%). Induction and Maintenance of Skin Inflammation
Skin inflammation is induced for each mouse by daily dorsal cutaneous application to Zone A (FIG. 9) for 7 days (day 1 to day 7) of 100 μL of TPA acetone solution at a concentration of 0.2 mg/ml.
It is then maintained by cutaneous application every 2 days for 7 days (day 8 to day 14) of 100 μl of TPA acetone solution.
For the vehicle, the animals (G1) were treated daily by cutaneous application of 0.125 g of ointment on the backs of the mice just off the zone of application of TPA acetone solution (roughly 5 cm^2 area corresponding to zones A and B shown in FIG. 9), for 7 days from day 8 to day 14.
For compound PAT1657, the animals (G2 and G3) were treated by cutaneous application of 0.125 g of ointment on the backs of the mice just off the zone of application of TPA acetone solution (roughly 5 cm^2 area corresponding to zones A and B shown in FIG. 9), on days 8, 11 and 14.
Macroscopic visual scoring of skin inflammation is performed daily for each mouse from day 8 to day 15 by quantifying it according to the following scale (Guenon-Macé et al., 2015):
Macroscopic visual scoring of skin inflammation makes it possible to quantify the following parameters: • degree of skin inflammation in the TPA acetone solution application zone and in the ointment treatment zone corresponding to zone A in FIG. 9, • degree of skin inflammation in the ointment treatment zone and outside the TPA acetone solution application zone corresponding to zone B in FIG. 9, • degree of skin inflammation on the rest of the back corresponding to zone C in FIG. 9, • Overall macroscopic score of skin inflammation (total of the scores of the three zones A, B and C shown in FIG. 9). Result Animal Mortality

IL-6 = IL-6 production by NHEKs in the inflammatory state (PMA + calcium ionophore, 0.8 mM Ca2+), ELISA; assay type: cell-based, human; settings: PMA + calcium ionophore A23187, 0.8 mM Ca2+, compounds 50 μM, dexamethasone 10 μM, relative to induced control
Procedure: The study was carried out on Normal Human Epidermal Keratinocytes (NHEKs) (Lonza, CC-2507, origin: foreskin) in monolayer culture in Epilife medium (Invitrogen, M-EPI-500-A) containing the components of the Human Keratinocyte Growth Supplement (HKGS) mixture (Invitrogen, S-001-K) added separately, except hydrocortisone having anti-inflammatory properties.
For the quantification of IL-8 and PGE2, the inflammatory state of the NHEKs in culture was induced by treatment with PMA (phorbol myristate acetate/10 ng/ml/H2O) for 24 h. […]
Quantification of the various inflammatory mediators was carried out with specific kits, based on a standard curve, according to the instructions provided by the kits' suppliers, R&D Systems and Cayman Chemical.
Before induction of the inflammatory state, the NHEKs were treated with the compounds and reference molecules for 2 h. The inflammatory state was then induced according to the conditions described in the methodology section, the culture supernatants were collected, and the various inflammatory mediators were quantified by the ELISA technique.
The effect of the compounds on IL-6 production by NHEKs in the inflammatory state is shown in FIG. 6 and is expressed as a percentage of the treatment with PMA combined with calcium ionophore A23187 (under high-calcium conditions: 0.8 mM Ca2+).

[2] = PAT1657 at 1.33% and 2.67% in Excipial ointment, relative to control, from day 10 onwards

CCCCCCCCNC(=O)[C@]1(O)C[C@@H](OC(=O)/C=C/c2ccc(O)c(O)c2)[C@@H](O)[C@H](OC(=O)/C=C/c2ccc(O)c(O)c2)C1 [PAT1657, (2E,2′E)-((1R,2S,3R,5S)-2,5-dihydroxy-5-(octylcarbamoyl)cyclohexane-1,3-diyl) bis(3-(3,4-dihydroxyphenyl)acrylate)]
degree of skin inflammation, zone A (TPA application zone and treatment zone) ([1]; PAT1657 at 1.33% and 2.67% in Excipial ointment, cutaneous, days 8, 11, 14, relative to control, from day 13 onwards): significant decrease | degree of skin inflammation, zone C (rest of the back) [1, 2]: significant decrease | overall degree of skin inflammation (zones A, B and C) [1, 2]: significant decrease | degree of skin inflammation, zone B (treatment zone outside TPA application zone) ([1]; PAT1657 at 1.33% and 2.67% in Excipial ointment, relative to control, from day 13 onwards): significant decrease | reaction to application of the products ([1]; SKH-1 mice, cutaneous application of ointments): No reaction was observed | intensity of skin inflammation from a macroscopic point of view ([1]; two doses, cutaneous application every 3 days, curative treatment, dose-dependent effect): significantly reduced | IL-6 production (IL-6): largest decreases and are more effective than dexamethasone itself
